Structures can show the parent of a compound that is named as a salt.
What was measured:
[1] = tested on: 40 different bacterial species; assay: Prestwick Chemical Library growth screen, whole panel (hits, anticommensal activity); format: cell-based, human gut isolates; conditions: for anticommensal activity in the screen (in words): 20 μM, 40 strains, FDR<0.01
[2] = tested on: Clostridium perfringens (NT5032); format: cell-based; conditions: screen at 20 μM
[3] = tested on: Clostridium difficile (NT5083); assay: Prestwick Chemical Library growth screen (OD578 growth curves, AUC); format: cell-based; conditions: screen at 20 μM
[4] = tested on: Bacteroides fragilis (ET) (NT5033); format: cell-based, Bacteroides fragilis enterotoxigenic; conditions: screen at 20 μM
[5] = tested on: Bacteroides ovatus (NT5054); assay: Prestwick Chemical Library growth screen (OD578 growth curves, AUC); format: cell-based; conditions: FIG. 8b, three biological replicates, 20 μM
[6] = number of species inhibited of 40 different bacterial species tested
[7] = number of the 40 bacterial species tested whose growth is inhibited, Table 7 broad-spectrum compounds
[8] = number of the 40 strains inhibited at 20 μM (FDR<0.01)

Compound: C[C@H]1O[C@H](O[C@H]2[C@H](O)[C@@H](O)[C@@H](O[C@H]3[C@H](O)[C@@H](O)C(O)O[C@@H]3CO)O[C@@H]2CO)[C@H](O)[C@@H](O)[C@@H]1N[C@H]1C=C(CO)[C@@H](O)[C@H](O)[C@H]1O (stereo partly drawn) [Acarbose]
- n_hit [1, 6]: 6

Compound: C=C1/C(=C\C=C2/CCC[C@]3(C)[C@@H]([C@H](C)CCCC(C)C)CC[C@@H]23)C[C@@H](O)C[C@@H]1O [Alfacalcidol]
- selective inhibition of the growth of C. perfringens bacteria (in words) [2]: selectively inhibiting the growth
- n_hit [1, 6]: 7

Compound: CCCCc1oc2ccccc2c1C(=O)c1cc(I)c(OCCN(CC)CC)c(I)c1 [Amiodarone hydrochloride]
- n_hit [1, 7]: 10

Compound: CCOC(=O)C1=C(COCCN)NC(C)=C(C(=O)OC)C1c1ccccc1Cl (stereo not drawn) [Amlodipine]
- n_hit [1, 8]: 2

Compound: O=C1c2c(O)cccc2Cc2cccc(O)c21 [Anthralin]
- n_hit [1, 7]: 11

Compound: C[C@@H](O[C@H]1OCCN(Cc2n[nH]c(=O)[nH]2)[C@H]1c1ccc(F)cc1)c1cc(C(F)(F)F)cc(C(F)(F)F)c1 [Aprepitant]
- n_hit [1, 7]: 10

Compound: O=C1CCc2ccc(OCCCCN3CCN(c4cccc(Cl)c4Cl)CC3)cc2N1 [Aripiprazole]
- n_hit [1, 6]: 3

Compound: COc1ccc(CCN2CCC(Nc3nc4ccccc4n3Cc3ccc(F)cc3)CC2)cc1 [Astemizole]
- n_hit [1, 7]: 10

Compound: Nc1ncn(C2OC(CO)C(O)C2O)c(=O)n1 (stereo not drawn) [Azacytidine-5]
- selective inhibition of the growth of C. perfringens bacteria (in words) [2]: selectively inhibiting the growth
- n_hit [1, 6]: 1

Compound: Cn1cnc([N+](=O)[O-])c1Sc1ncnc2nc[nH]c12 [Azathioprine]
- inhibition of the growth of C. difficile bacteria (in words) [3]: effective in inhibiting the growth
- n_hit [1, 8]: 7

Compound: CC(C)COCC(CN(Cc1ccccc1)c1ccccc1)N1CCCC1 (stereo not drawn) [Bepridil hydrochloride]
- n_hit [1, 7]: 14

Compound: CC1(C)[C@@H](OC(=O)CCC(=O)O)CC[C@]2(C)[C@H]3C(=O)C=C4[C@@H]5C[C@@](C)(C(=O)O)CC[C@]5(C)CC[C@@]4(C)[C@]3(C)CC[C@@H]12 [Carbenoxolone disodium salt]
- inhibition of the growth of C. difficile bacteria (in words) [3]: effective in inhibiting the growth
- n_hit [1, 8]: 2

Compound: CN(C)CCCN1c2ccccc2Sc2ccc(Cl)cc21 [Chlorpromazine hydrochloride]
- selective inhibition of the growth of C. perfringens bacteria (in words) [2]: selectively inhibiting the growth
- n_hit [1, 6]: 6

Compound: COCCOC(=O)C1=C(C)NC(C)=C(C(=O)OC/C=C/c2ccccc2)C1c1cccc([N+](=O)[O-])c1 (stereo not drawn) [Cilnidipine]
- selective inhibition of the growth of an enterotoxigenic strain of Bacteroides fragilis (in words) [4]: selectively inhibiting the growth
- inhibition of the growth of C. difficile bacteria (in words) [3]: effective in inhibiting the growth
- n_hit [1, 8]: 5

Compound: Clc1ccc(Cn2c(CN3CCCC3)nc3ccccc32)cc1 [Clemizole hydrochloride]
- n_hit [1, 7]: 15

Compound: CC(=O)Oc1cccc2c1C(=O)c1c(OC(C)=O)cc(C(=O)O)cc1C2=O [Diacerein]
- effect on growth curves (normalized OD/AUC) of Bacteroides ovatus (in words) [5]: almost completely inhibits the growth
- n_hit [1, 7]: 33

Compound: O=c1oc2ccccc2c(O)c1Cc1c(O)c2ccccc2oc1=O [Dicumarol]
- n_hit [1, 7]: 10

Compound: CCCCC(=O)O[C@H]1CC[C@H]2[C@@H]3CCc4cc(O)ccc4[C@H]3CC[C@]12C [Estradiol Valerate]
- n_hit [1, 7]: 11

Compound: C=C(CC)C(=O)c1ccc(OCC(=O)O)c(Cl)c1Cl [Ethacrynic acid]
- selective inhibition of the growth of an enterotoxigenic strain of Bacteroides fragilis (in words) [4]: selectively inhibiting the growth
- selective inhibition of the growth of C. perfringens bacteria (in words) [2]: selectively inhibiting the growth
- n_hit [1, 6]: 6

Compound: CCN(CC)C(C)CN1c2ccccc2Sc2ccccc21 (stereo not drawn) [Ethopropazine hydrochloride]
- n_hit [1, 7]: 11

Compound: CCOC(=O)/C=C(C)/C=C/C=C(C)/C=C/c1c(C)cc(OC)c(C)c1C [Etretinate]
- selective inhibition of the growth of C. perfringens bacteria (in words) [2]: selectively inhibiting the growth
- n_hit [1, 6]: 1

Compound: CC(NCCC(c1ccccc1)c1ccccc1)c1ccccc1 (stereo not drawn) [Fendiline hydrochloride]
- inhibition of the growth of C. difficile bacteria (in words) [3]: effective in inhibiting the growth
- n_hit [1, 8]: 8

Compound: O=C(O)Cc1sc(-c2ccccc2)nc1-c1ccc(Cl)cc1 [Fentiazac]
- inhibition of the growth of C. difficile bacteria (in words) [3]: effective in inhibiting the growth
- n_hit [1, 8]: 1

Compound: O=C(O)c1ccccc1Nc1cccc(C(F)(F)F)c1 [Flufenamic acid]
- n_hit [1, 6]: 4

Compound: Nc1nc2ncc(CNc3ccc(C(=O)N[C@@H](CCC(=O)O)C(=O)O)cc3)nc2c(=O)[nH]1 [Folic acid]
- n_hit [1, 6]: 2

Compound: Nc1ccn([C@@H]2O[C@H](CO)[C@@H](O)C2(F)F)c(=O)n1 [Gemcitabine]
- selective inhibition of the growth of C. perfringens bacteria (in words) [2]: selectively inhibiting the growth
- n_hit [1, 6]: 2

Compound: COc1ccc2c(c1)C(=O)N(CCc1ccc(S(=O)(=O)NC(=O)NC3CCCCC3)cc1)C(=O)C2(C)C [Gliquidone]
- inhibition of the growth of C. difficile bacteria (in words) [3]: effective in inhibiting the growth
- n_hit [1, 8]: 1

Compound: COC1=C(OC)C(=O)C(CCCCCCCCCCO)=C(C)C1=O [Idebenone]
- selective inhibition of the growth of C. perfringens bacteria (in words) [2]: selectively inhibiting the growth
- n_hit [1, 6]: 3

Compound: CCOC(=O)C1=C(C)NC(C)=C(C(=O)OCC)C1c1ccccc1/C=C/C(=O)OC(C)(C)C [Lacidipine]
- inhibition of the growth of C. difficile bacteria (in words) [3]: effective in inhibiting the growth
- n_hit [1, 8]: 6

Compound: CCOC(=O)N1CCC(=C2c3ccc(Cl)cc3CCc3cccnc32)CC1 [Loratadine]
- n_hit [1, 7]: 15

Compound: Cc1ccc(Cl)c(Nc2ccccc2C(=O)O)c1Cl [Meclofenamic acid]
- selective inhibition of the growth of an enterotoxigenic strain of Bacteroides fragilis (in words) [4]: selectively inhibiting the growth
- effect on growth curves (normalized OD/AUC) of Bacteroides ovatus (in words) [5]: just below the hit threshold
- n_hit [1, 6]: 5

Compound: Cc1cccc(CN2CCN(C(c3ccccc3)c3ccc(Cl)cc3)CC2)c1 (stereo not drawn) [Meclozine dihydrochloride]
- inhibition of the growth of C. difficile bacteria (in words) [3]: effective in inhibiting the growth
- n_hit [1, 8]: 8

Compound: S=c1nc[nH]c2nc[nH]c12 [Mercaptopurine]
- inhibition of the growth of C. difficile bacteria (in words) [3]: effective in inhibiting the growth
- n_hit [1, 8]: 4

Compound: CSc1ccc2c(c1)C(N1CCN(C)CC1)Cc1ccccc1S2.O=C(O)/C=C\C(=O)O (stereo not drawn) [Methiothepin maleate]
- n_hit [1, 7]: 10

Compound: CN1CCCC(CC2c3ccccc3Sc3ccccc32)C1 (stereo not drawn) [Metixene hydrochloride]
- selective inhibition of the growth of an enterotoxigenic strain of Bacteroides fragilis (in words) [4]: selectively inhibiting the growth
- n_hit [1, 6]: 9

Compound: CC#C[C@]1(O)CC[C@H]2[C@@H]3CCC4=CC(=O)CCC4=C3[C@@H](c3ccc(N(C)C)cc3)C[C@@]21C [Mifepristone]
- inhibition of the growth of C. difficile bacteria (in words) [3]: effective in inhibiting the growth
- n_hit [1, 8]: 3

Compound: C[C@@H]1C[C@H]2[C@@H]3CCC4=CC(=O)C=C[C@]4(C)[C@@]3(Cl)[C@@H](O)C[C@]2(C)[C@@]1(OC(=O)c1ccco1)C(=O)CCl [Mometasone furoate]
- n_hit [1, 6]: 1

Compound: CC(C)(O)c1ccccc1CC[C@@H](SCC1(CC(=O)O)CC1)c1cccc(/C=C/c2ccc3ccc(Cl)cc3n2)c1 [Montelukast]
- n_hit [1, 8]: 8

Compound: CC(=O)O[C@H]1C(=O)[C@@]2(C)[C@H]([C@H](OC(=O)c3ccccc3)[C@]3(O)C[C@H](OC(=O)[C@H](O)[C@@H](NC(=O)c4ccccc4)c4ccccc4)C(C)=C1C3(C)C)[C@]1(OC(C)=O)CO[C@@H]1C[C@@H]2O [Paclitaxel]
- selective inhibition of the growth of C. perfringens bacteria (in words) [2]: selectively inhibiting the growth
- n_hit [1, 6]: 1

Compound: O=C1c2ccccc2C(=O)C1c1ccccc1 [Phenindione]
- selective inhibition of the growth of C. perfringens bacteria (in words) [2]: selectively inhibiting the growth
- n_hit [1, 6]: 1

Compound: CNCCCC1c2ccccc2C=Cc2ccccc21 [Protriptyline hydrochloride]
- selective inhibition of the growth of an enterotoxigenic strain of Bacteroides fragilis (in words) [4]: selectively inhibiting the growth
- n_hit [1, 6]: 8

Compound: CCCc1nc2c(C)cc(-c3nc4ccccc4n3C)cc2n1Cc1ccc(-c2ccccc2C(=O)O)cc1 [Telmisartan]
- inhibition of the growth of C. difficile bacteria (in words) [3]: effective in inhibiting the growth
- n_hit [1, 8]: 4

Compound: N[C@@H](Cc1cc(I)c(Oc2cc(I)c(O)c(I)c2)c(I)c1)C(=O)O [Thyroxine (L)]
- n_hit [1, 6]: 3

Compound: O=C(O)Cc1cc(I)c(Oc2ccc(O)c(I)c2)c(I)c1 [Tiratricol]
- n_hit [1, 7]: 14

Compound: Cc1cccc(N(C)C(=S)Oc2ccc3ccccc3c2)c1 [Tolnaftate]
- selective inhibition of the growth of an enterotoxigenic strain of Bacteroides fragilis (in words) [4]: selectively inhibiting the growth
- n_hit [1, 6]: 5

Compound: Cc1cc(-n2c(=O)[nH]c(=O)n(C)c2=O)ccc1Oc1ccc(SC(F)(F)F)cc1 [Toltrazuril]
- selective inhibition of the growth of an enterotoxigenic strain of Bacteroides fragilis (in words) [4]: selectively inhibiting the growth
- n_hit [1, 6]: 7

Compound: CCOC1O[C@H]([C@@H](COCc2ccccc2)OCc2ccccc2)[C@H](OCc2ccccc2)[C@H]1O (stereo partly drawn) [Tribenoside]
- inhibition of the growth of C. difficile bacteria (in words) [3]: effective in inhibiting the growth
- n_hit [1, 8]: 1

Compound: Cc1c(C)c2c(c(C)c1O)CCC(C)(COc1ccc(CC3SC(=O)NC3=O)cc1)O2 (stereo not drawn) [Troglitazone]
- n_hit [1, 7]: 13

Compound: O=C1Nc2ccc(Cl)cc2[C@@](C#CC2CC2)(C(F)(F)F)O1 [efavirenz]
- anticommensal activity in the screen (in words) [1]: anticommensal activity

Compound: CCOC(=O)Nc1ccc2c(c1)N(C(=O)CCN1CCOCC1)c1ccccc1S2 [moricizine]
- effect on growth curves (normalized OD/AUC) of Bacteroides ovatus (in words) [5]: a hit with partial but strong growth inhibition

Compound: O=c1[nH]c(=O)n([C@H]2C[C@H](O)[C@@H](CO)O2)cc1C(F)(F)F [trifluridine]
- anticommensal activity in the screen (in words) [1]: anticommensal activity

Source: US11766427B2, “Repurposing compounds for the treatment of infections and for modulating the composition of the gut microbiome” (EUROPEAN MOLECULAR BIOLOGY LABORATORY, priority 2018, dated 2023)
